In patent publication US8119640B2, “Hedgehog pathway antagonists methods of use” (The Board of Trustees of the Leland Stanford Junior …, priority 2008, dated 2012):
“Also recorded” adds a separate entry of the source.

Experiments:
Type in all cases: cell-based
NIH-3T3 cells = assay: Microtubule cytoskeleton staining of HPI-treated NIH-3T3 cells; settings: tubulin antibody staining
Protocol: Immunostaining of FLAG-Gli lines and NIH-3T3 cells. The FLAG-Gli1-expressing or FLAG-Gli2-expressing clonal cell lines were seeded into 24-well plates (80,000 cells/well) containing poly-D-lysine-coated 12-mm glass coverslips. […] The cells were subsequently fixed in 4% paraformaldehyde for 10 min at room temperature followed by treatment with methanol at −20° C. for 2 to 5 min. The cells were washed with PBS, permeabilized with 0.2% Triton X-100 for 2 to 5 min, and then blocked with PBS containing 2% BSA for 3 h at room temperature. The coverslips were then treated with mouse anti-FLAG M2 antibody (Sigma; 1:1,000 dilution in blocking buffer) and rabbit anti-Arl13b (10) (1:1,000 dilution in blocking buffer) for 3 h at room temperature and washed 3×5 min with PBS. The coverslips were incubated next with Alexa Fluor 594-conjugated goat anti-mouse IgG and Alexa Fluor 488-conjugated donkey anti-rabbit IgG antibodies (Invitrogen; 1:1,000 dilutions in blocking buffer) for 2 h at room temperature. After washes with PBS and a 5-min incubation with 4,6-diamidino-2-phenylindole (DAPI), the samples were mounted using Prolong Gold (Invitrogen) and imaged with an upright Leica DM4500B compound microscope. In order to quantify ciliary Gli2 localization, a circular region with diameter equal to the average width of cilia as determined by the anti-Arl13b antibody staining was manually placed at the distal end of each cilium. Regions were transferred from the anti-Arl13b antibody image to the anti-FLAG antibody image, and FLAG staining intensities within those areas were assessed. Between 40 and 80 cilia were analyzed for each condition. To normalize ciliary FLAG-Gli2 levels with respect to compound-dependent changes in total FLAG-Gli2 levels, the absolute average intensities for each condition were divided by the fold change in FLAG-Gli2 levels, as determined by the quantitative immunoblotting described above. Quantification of ciliary FLAG-Gli1 levels was performed in an analogous manner. Since HPI-4 perturbs primary cilia formation, only Arl13b-positive structures that could be clearly identified as cilia were used for Gli protein quanitification in HPI-4-treated cells. To assess cytoplasmic microtubule structures in cells treated with the HPIs, NIH-3T3 cells were cultured on poly-D-lysine-coated 12-mm glass coverslip, treated with the HPIs, and fixed with 4% paraformalehyde as described above. In place of the methanol treatment, the cells were permeabilitized with PBS containing 0.1% Triton X-100 for 1 min. Washing, blocking, and antibody incubation steps were then conducted as before, using mouse anti-<-tubulin (DM1-A, Sigma, 1:2,000 in blocking buffer). Secondary antibody treatments, DAPI staining, mounting, and imaging were then conducted as described above.

Hh pathway = assay: Shh-EGFP assay for Hh pathway activation; settings: Shh-N-conditioned medium; HPIs at ten-fold their Shh-LIGHT2 IC50 or 30 μM, whichever lower
Protocol: Shh-EGFP assay for Hh pathway activation. A Gli-dependent enhanced green fluorescent protein reporter (Shh-EGFP) was generated by excising firefly luciferase cDNA from the 8XGliBs vector using NcoI/Hpal, and ligating in EGFP cDNA excised from the pEGFP-C1 vector (Clontech) by NcoI/Af/II digestion. […] The cells were grown to confluency and treated with DMEM containing 0.5% CS, 100 U/mL penicillin, 0.1 mg/mL streptomycin, and 5% Shh-N-conditioned medium for 30 h. Following Shh-N treatment, the adherent cultures were dissociated into single cells with 0.05% Trypsin-EDTA (300 μL/well; Invitrogen) for 5 min. The cells were then suspended in 1 mL of PBS containing 1% CS and sorted on a BD FACSAria (excitation: 488 nm; emission: 530/30 nm) to enrich for cells expressing EGFP in a Shh-N-responsive manner. […] To identify Shh-EGFP clones with maximum Shh-N-responsiveness, individual lines were seeded into 24-well plates (45,000 cell/well) and cultured for 48 h. The cells were then treated with DMEM containing 0.5% CS, 100 U/mL pencillin, 0.1 mg/mL streptomycin or the culture medium plus 5% Shh-N-conditioned medium. After 30 h, the adherent cultures were treated with 0.05% trypsin-EDTA (150 μL/well; Invitrogen) for 5 min to dissociate them into single cells. The cells were then resuspended in 500 μL of PBS containing 1% CS and analyzed on a BD FACSCalibur (excitation: 488 nm; emission: 530/30 nm). 10,000 cells were used to assess EGFP expression levels as a measure of Hh pathway activation, and the data was analyzed using FlowJo software (Tree Star). Clones with low basal EGFP levels and maximum Shh-Ninduced EGFP expression were selected for further use. To assess the inhibitory activities of the HPIs in the Shh-EGFP cells, a clonal line with maximum Shh-responsiveness was cultured in 24-well plates as described above. […] The resulting EGFP levels were then evaluated by FACS and quantified using the FlowJo software.

Gli2 = target: T1, Gli2 (Mus musculus, UniProt Q0VGT2); assay: Hh pathway activation mediated by overexpression of Gli2; settings: for Inhibition of Hh pathway activity induced by Gli2 overexpression: NIH-3T3 cells, Gli-dependent firefly luciferase; for IC50: NIH-3T3 cells overexpressing Gli2, read-out: IC50 (uM) Gli2 Transfected
T1 construct: expressed in transfected cells; host or cells: NIH-3T3
T1 sequence (Q0VGT2 whole entry): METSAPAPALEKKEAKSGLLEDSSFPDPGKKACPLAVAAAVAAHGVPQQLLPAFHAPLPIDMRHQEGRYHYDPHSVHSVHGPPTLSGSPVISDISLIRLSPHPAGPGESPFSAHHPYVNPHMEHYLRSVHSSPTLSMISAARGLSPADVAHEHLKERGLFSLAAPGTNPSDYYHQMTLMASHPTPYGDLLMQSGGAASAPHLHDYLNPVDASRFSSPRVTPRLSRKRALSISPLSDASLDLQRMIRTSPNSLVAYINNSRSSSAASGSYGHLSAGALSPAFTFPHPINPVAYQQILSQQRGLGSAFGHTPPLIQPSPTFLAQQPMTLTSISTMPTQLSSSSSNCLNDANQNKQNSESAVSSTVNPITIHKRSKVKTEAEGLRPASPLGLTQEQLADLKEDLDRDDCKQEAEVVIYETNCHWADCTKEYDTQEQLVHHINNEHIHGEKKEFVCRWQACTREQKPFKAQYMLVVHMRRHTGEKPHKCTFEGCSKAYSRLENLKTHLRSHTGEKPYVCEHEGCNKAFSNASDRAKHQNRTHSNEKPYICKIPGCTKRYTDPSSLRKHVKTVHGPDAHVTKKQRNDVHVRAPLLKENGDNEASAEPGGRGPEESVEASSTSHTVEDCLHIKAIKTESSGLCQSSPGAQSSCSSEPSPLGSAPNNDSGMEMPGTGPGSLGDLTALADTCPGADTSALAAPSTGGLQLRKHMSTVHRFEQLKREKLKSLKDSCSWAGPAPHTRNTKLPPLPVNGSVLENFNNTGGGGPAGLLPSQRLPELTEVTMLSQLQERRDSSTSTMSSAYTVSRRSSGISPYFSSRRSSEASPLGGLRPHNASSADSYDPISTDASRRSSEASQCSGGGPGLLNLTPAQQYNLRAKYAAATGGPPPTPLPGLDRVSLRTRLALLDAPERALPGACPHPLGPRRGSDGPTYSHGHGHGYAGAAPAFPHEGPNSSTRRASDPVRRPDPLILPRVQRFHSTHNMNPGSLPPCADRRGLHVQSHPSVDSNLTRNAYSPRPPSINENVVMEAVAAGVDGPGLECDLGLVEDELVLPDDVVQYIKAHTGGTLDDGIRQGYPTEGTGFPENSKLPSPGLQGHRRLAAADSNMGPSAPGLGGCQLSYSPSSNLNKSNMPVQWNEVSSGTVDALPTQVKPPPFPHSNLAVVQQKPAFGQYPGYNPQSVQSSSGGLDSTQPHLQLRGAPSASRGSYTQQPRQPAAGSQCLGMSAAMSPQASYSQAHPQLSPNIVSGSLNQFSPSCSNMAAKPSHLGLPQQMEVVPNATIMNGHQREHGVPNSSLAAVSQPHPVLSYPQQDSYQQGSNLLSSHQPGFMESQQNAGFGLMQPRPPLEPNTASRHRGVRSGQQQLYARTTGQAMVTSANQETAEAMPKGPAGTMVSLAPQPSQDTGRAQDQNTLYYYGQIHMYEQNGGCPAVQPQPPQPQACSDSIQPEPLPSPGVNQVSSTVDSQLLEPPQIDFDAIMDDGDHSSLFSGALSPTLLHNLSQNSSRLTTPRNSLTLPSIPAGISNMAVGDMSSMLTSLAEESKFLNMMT
Protocol: Hh pathway activation mediated by the overexpression of Gli, Gli2, Gli2αPKA, or Gli2αGSK. […] The cells were co-transfected the following day with 220 ng/well pcDNA-derived Gli1, Gli2, or Gli2 phosphosite mutant expression vectors and 80 ng/well of a 1:15 mixture of phRLTK (Promega) and 8XGIiBS-FL. After transfection, cells were grown to confluence (approximately 48 h). The cell were then incubated for an additional 28-32 h in DMEM containing 0.5% CS, 100 U/mL penicillin, 0.1 mg/mL streptomycin, and either DMSO, 50 μM forskolin, 50 μM LY294002, or various concentrations of the HPIs. Firefly and Renilla luciferase activities were measured using a dual luciferase kit and a Veritas microplate luminometer.

| SMILES | Microtubule disruption (NIH-3T3 cells) | % Inhibition Shh-GFP cells (Hh pathway) | Inhibition of Hh pathway activity induced by Gli2 overexpression (Gli2; listed as HPI-1) | IC50 (Gli2) | Toxicity noted in Gli2 Transfected column (Gli2) | Inhibition of Hh pathway activity induced by Gli2 overexpression (Gli2; listed as HPI-3) | Inhibition of Hh pathway activity induced by Gli2 overexpression (Gli2; listed as HPI-2) | Inhibition of Hh pathway activity induced by Gli2 overexpression (Gli2; listed as HPI-4) |
| --- | --- | --- | --- | --- | --- | --- | --- | --- |
| COCCOC(=O)C1=C(C)NC2=C(C(=O)CC(c3ccccc3OC)C2)C1c1cccc(O)c1 (mixture of isomers) [Compound 8, 4-(3-Hydroxy-phenyl)-7-(2-methoxy-phenyl)-2-methyl-5-oxo-1,4,5,6,7,8-hexahydro-quinoline-3-carboxylic acid 2-methoxy-ethyl ester] | No | 86% | inhibit Gli-induced firefly luciferase expression in a dose-dependent manner; also recorded: inhibits |  |  |  |  |  |
| N#Cc1cc2c(nc1SCC(=O)Nc1nc3ccccc3s1)CCC2 [Compound 1] | No | 74.4% |  | 3 µM |  |  |  |  |
| CCCCNC(=N)C(C)c1ccc(CC(C)C)cc1 (stereo not shown) [Compound 2] | No | 80.9% |  | > 30 µM |  |  |  |  |
| Cc1cc(/C=c2\sc3nc4ccccc4n3c2=O)c(C)n1C(C)C [Compound 3] | No | 60.5% |  | 2 µM |  |  |  |  |
| O=C(Nc1cccc2ccccc12)OC[C@@H]1CCCN2CCCC[C@H]12 [Compound 4] | No | 63% |  | > 30 µM |  |  |  |  |
| CCC(C)NS(=O)(=O)c1ccc(Cc2ccc(S(=O)(=O)NC(C)CC)cc2)cc1 (stereo not shown) [Compound 5] | No | 84.9% |  | 10 µM |  |  |  |  |
| CCOC(=O)c1cc2c(=O)n3ccccc3nc2n(C(C)C)c1=NC(=O)c1cc(OC)cc(OC)c1 [Compound 6] | No | 84.5% |  | 1.5 µM |  |  |  |  |
| CCN1CCCC1CNC(=O)C1CCN(c2nc3c(C)cc(C)cc3s2)CC1 (stereo not shown) [Compound 7] | No | 90.5% |  | > 10 µM | (Toxic at 30) |  |  |  |
| CCOC(=O)c1cn(-c2ccccc2)nc1-c1ccc(OC)c(OC)c1 [Compound 9] | No | 86.5% |  | > 30 µM |  |  |  |  |
| O=S(=O)(Nc1cc(Cl)c(Cl)cc1Cl)c1ccc(F)cc1 [Compound 10] | No | 78.8% |  | 4 µM |  |  |  |  |
| OCCNc1nc(N2CCN(c3ccccc3)CC2)nc2ccccc12 [Compound 11] | No | 76.7% |  | > 30 µM |  | no significant activity; also recorded: inactive |  |  |
| CC(C)(C)N(CCNS(=O)(=O)c1ccc(-c2cc(C(F)(F)F)no2)s1)Cc1ccco1 [Compound 12] | No | 87.5% |  | 15 µM |  |  |  |  |
| CN1CCN(C2Cc3ccccc3Sc3ccccc32)CC1 (stereo not shown) [Compound 13] | No | 78.3% |  | > 30 µM |  |  |  |  |
| CCOc1ccc2ncc(C(=O)c3ccc(C)cc3)c(N3CCCC3)c2c1 [Compound 14] | No | 67.2% |  | 10 µM |  |  |  |  |
| O=C(Nc1nnc(S(=O)(=O)N2CCCCC2)s1)c1cccc(Br)c1 [Compound 15] | No | 86.9% |  | 25 µM |  |  |  |  |
| CCOc1ccc(CCNc2cnnc3c(Cl)cccc23)cc1OCC [Compound 16] | No | 82.7% |  | > 30 µM |  |  |  |  |
| COc1ccc(OC)c2c1cc1n2CC(C)(C(=O)NC2CCCCCCC2)N(CCN(C)C)C1=O (stereo not shown) [Compound 17] | No | 80.2% |  | 6 µM |  |  | preferentially inhibits Gli2 |  |
| N#CC(C(=O)c1ccc(Cl)cc1Cl)=C1NC(=O)c2ccccc2N1 [Compound 18] | No | 80% |  | > 10 µM |  |  |  | no significant activity; also recorded: inactive |
